Laboratory results taken from PubChem BioAssay AID248 (DTP/NCI, 2004).
Where “and” joins values, the source holds several entries; their conditions need not be identical. Equal entries are not always repeated. Toxic doses and inconclusive results are not listed. Rule as the data show it: active = T/C of 150% or more; inactive = T/C below 125%.

Test system: L1210 leukemia ip in BDF1 mice, survival T/C
Assay: NCI In Vivo Anticancer Drug Screen. Data for tumor model L1210 Leukemia (intraperitoneal) in B6D2F1 (BDF1) mice
Conditions: higher = longer survival
In short: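 Transplanted-tumor mice were given test agent; controls received vehicle only. Survival readings from the two groups were divided (treated over control).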

Measured: T/C

CC1OC(OC2C(O)CC(OC3C(O)CC(OC4CCC5(C)C(CCC6C5CCC5(C)C(C7=CC(=O)OC7)CCC65O)C4)OC3C)OC2C)CC(O)C1O (configuration not stated)
inactive: endpoint: mean survival time, dose: 1.0 mg/kg/injection, schedule: Q01DX015 (sc), vehicle: steriod suspending solution 93 % of control | endpoint: mean survival time, dose: 2.0 mg/kg/injection, schedule: Q01DX015 (sc), vehicle: steriod suspending solution 98 % of control | endpoint: mean survival time, dose: 4.0 mg/kg/injection, schedule: Q01DX015 (sc), vehicle: steriod suspending solution 101 % of control | endpoint: mean survival time, dose: 8.0 mg/kg/injection, schedule: Q01DX015 (sc), vehicle: steriod suspending solution 102 % of control | endpoint: mean survival time, dose: 10.0 mg/kg/injection, schedule: Q01DX001 (ip), vehicle: saline 106 % of control | endpoint: mean survival time, dose: 16.0 mg/kg/injection, schedule: Q01DX015 (sc), vehicle: steriod suspending solution 105 % of control | endpoint: mean survival time, dose: 20.0 mg/kg/injection, schedule: Q01DX001 (ip), vehicle: saline 105 % of control | endpoint: mean survival time, dose: 32.0 mg/kg/injection, schedule: Q01DX015 (sc), vehicle: steriod suspending solution 101 % of control | endpoint: mean survival time, dose: 40.0 mg/kg/injection, schedule: Q01DX001 (ip), vehicle: saline 103 % of control | endpoint: median survival time, dose: 0.5 mg/kg/injection, schedule: Q01DX005 (iv), vehicle: water 99 % of control | endpoint: median survival time, dose: 0.5 mg/kg/injection, schedule: Q01DX010 (ip), vehicle: methylcellulose (MC) 91 % of control | endpoint: median survival time, dose: 0.5 mg/kg/injection, schedule: Q01DX010 (ip), vehicle: water 99 % of control and 100 % of control | endpoint: median survival time, dose: 1.0 mg/kg/injection, schedule: Q01DX005 (iv), vehicle: water 99 % of control | endpoint: median survival time, dose: 1.0 mg/kg/injection, schedule: Q01DX010 (ip), vehicle: methylcellulose (MC) 102 % of control | endpoint: median survival time, dose: 1.0 mg/kg/injection, schedule: Q01DX010 (ip), vehicle: water 99 % of control and 100 % of control | endpoint: median survival time, dose: 1.0 mg/kg/injection, schedule: Q04DX003 (ip), vehicle: water 99 % of control and 100 % of control | endpoint: median survival time, dose: 1.0 mg/kg/injection, schedule: Q04DX003 (iv), vehicle: water 96 % of control | endpoint: median survival time, dose: 2.0 mg/kg/injection, schedule: Q01DX005 (ip), vehicle: water 95 % of control | endpoint: median survival time, dose: 2.0 mg/kg/injection, schedule: Q01DX005 (iv), vehicle: water 100 % of control | endpoint: median survival time, dose: 2.0 mg/kg/injection, schedule: Q01DX010 (ip), vehicle: methylcellulose (MC) 104 % of control | endpoint: median survival time, dose: 2.0 mg/kg/injection, schedule: Q01DX010 (ip), vehicle: water 105 % of control and 111 % of control | endpoint: median survival time, dose: 2.0 mg/kg/injection, schedule: Q04DX003 (ip), vehicle: water 95 % of control | endpoint: median survival time, dose: 2.0 mg/kg/injection, schedule: Q04DX003 (iv), vehicle: water 92 % of control | endpoint: median survival time, dose: 4.0 mg/kg/injection, schedule: Q01DX005 (ip), vehicle: water 109 % of control | endpoint: median survival time, dose: 4.0 mg/kg/injection, schedule: Q01DX005 (iv), vehicle: water 106 % of control | endpoint: median survival time, dose: 4.0 mg/kg/injection, schedule: Q01DX010 (ip), vehicle: methylcellulose (MC) 103 % of control | endpoint: median survival time, dose: 4.0 mg/kg/injection, schedule: Q01DX010 (ip), vehicle: water 102 % of control and 105 % of control | endpoint: median survival time, dose: 4.0 mg/kg/injection, schedule: Q04DX003 (ip), vehicle: water 100 % of control | endpoint: median survival time, dose: 4.0 mg/kg/injection, schedule: Q04DX003 (iv), vehicle: water 93 % of control | endpoint: median survival time, dose: 8.0 mg/kg/injection, schedule: Q01DX005 (ip), vehicle: water 113 % of control | endpoint: median survival time, dose: 8.0 mg/kg/injection, schedule: Q01DX005 (iv), vehicle: water 86 % of control | endpoint: median survival time, dose: 8.0 mg/kg/injection, schedule: Q01DX010 (ip), vehicle: water 102 % of control and 105 % of control | endpoint: median survival time, dose: 8.0 mg/kg/injection, schedule: Q04DX003 (ip), vehicle: water 86 % of control | endpoint: median survival time, dose: 8.0 mg/kg/injection, schedule: Q04DX003 (iv), vehicle: water 93 % of control | endpoint: median survival time, dose: 16.0 mg/kg/injection, schedule: Q01DX010 (ip), vehicle: water 93 % of control and 94 % of control | endpoint: median survival time, dose: 16.0 mg/kg/injection, schedule: Q04DX003 (ip), vehicle: water 93 % of control | endpoint: median survival time, dose: 16.0 mg/kg/injection, schedule: Q04DX003 (iv), vehicle: water 68 % of control

NC(N)=N/N=C(/C(=N\N=C(N)N)c1ccco1)c1ccco1
inactive: endpoint: mean survival time, dose: 8.0 mg/kg/injection, schedule: Q01DX Z (oral), vehicle: methylcellulose (MC) 89 % of control | endpoint: mean survival time, dose: 15.0 mg/kg/injection, schedule: Q01DX Z (ip), vehicle: methylcellulose (MC) 100 % of control | endpoint: mean survival time, dose: 15.0 mg/kg/injection, schedule: Q01DX Z (oral), vehicle: methylcellulose (MC) 96 % of control | endpoint: mean survival time, dose: 30.0 mg/kg/injection, schedule: Q01DX Z (oral), vehicle: methylcellulose (MC) 105 % of control

CCn1cc(C(=O)O)c(=O)c2c3ccccc3ccc21
inactive: endpoint: mean survival time, dose: 100.0 mg/kg/injection, schedule: Q04DX002 (ip), vehicle: Klucel (hydroxypropylcellulose) (HPC) 96 % of control | endpoint: mean survival time, dose: 200.0 mg/kg/injection, schedule: Q04DX002 (ip), vehicle: Klucel (hydroxypropylcellulose) (HPC) 93 % of control | endpoint: mean survival time, dose: 400.0 mg/kg/injection, schedule: Q04DX002 (ip), vehicle: Klucel (hydroxypropylcellulose) (HPC) 100 % of control

CCCCCCCCCCCCCCCCCCNC(=O)NNC(=O)CCCC(=O)NNC(=O)NCCCCCCCCCCCCCCCCCC
inactive: endpoint: mean survival time, dose: 50.0 mg/kg/injection, schedule: Q01DX001 (ip), vehicle: saline 91 % of control | endpoint: mean survival time, dose: 100.0 mg/kg/injection, schedule: Q01DX001 (ip), vehicle: saline 97 % of control | endpoint: mean survival time, dose: 200.0 mg/kg/injection, schedule: Q01DX001 (ip), vehicle: saline 100 % of control | endpoint: mean survival time, dose: 400.0 mg/kg/injection, schedule: Q01DX001 (ip), vehicle: saline 97 % of control

O=C1CCCCCCNCCCCCC1
inactive: endpoint: mean survival time, dose: 100.0 mg/kg/injection, schedule: Q01DX001 (ip), vehicle: acetone 97 % of control | endpoint: mean survival time, dose: 200.0 mg/kg/injection, schedule: Q01DX001 (ip), vehicle: acetone 108 % of control | endpoint: mean survival time, dose: 400.0 mg/kg/injection, schedule: Q01DX001 (ip), vehicle: acetone 103 % of control

CC(C)(C)C(=O)CC(=O)C(C)(C)C.CC(C)(C)C(=O)CC(=O)C(C)(C)C.CC(C)(C)C(=O)CC(=O)C(C)(C)C.[Pr]
inactive: endpoint: mean survival time, dose: 100.0 mg/kg/injection, schedule: Q01DX001 (ip), vehicle: saline with Tween-80 100 % of control | endpoint: mean survival time, dose: 100.0 mg/kg/injection, schedule: Q01DX009 (ip), vehicle: saline with Tween-80 98 % of control | endpoint: mean survival time, dose: 200.0 mg/kg/injection, schedule: Q01DX001 (ip), vehicle: saline with Tween-80 97 % of control | endpoint: mean survival time, dose: 200.0 mg/kg/injection, schedule: Q01DX009 (ip), vehicle: saline with Tween-80 88 % of control | endpoint: mean survival time, dose: 400.0 mg/kg/injection, schedule: Q01DX001 (ip), vehicle: saline with Tween-80 89 % of control

NNc1ncnc(SCc2ccccc2)c1N
inactive: endpoint: mean survival time, dose: 50.0 mg/kg/injection, schedule: Q01DX001 (ip), vehicle: carboxymethylcellulose (CMC) 93 % of control | endpoint: mean survival time, dose: 100.0 mg/kg/injection, schedule: Q01DX001 (ip), vehicle: carboxymethylcellulose (CMC) 98 % of control | endpoint: mean survival time, dose: 200.0 mg/kg/injection, schedule: Q01DX001 (ip), vehicle: carboxymethylcellulose (CMC) 89 % of control | endpoint: mean survival time, dose: 400.0 mg/kg/injection, schedule: Q01DX001 (ip), vehicle: carboxymethylcellulose (CMC) 89 % of control

C=CCNC(=S)C(C(=O)OC)C(=O)OC
inactive: endpoint: mean survival time, dose: 100.0 mg/kg/injection, schedule: Q04DX003 (ip), vehicle: saline 103 % of control | endpoint: mean survival time, dose: 200.0 mg/kg/injection, schedule: Q04DX003 (ip), vehicle: saline 100 % of control | endpoint: mean survival time, dose: 400.0 mg/kg/injection, schedule: Q04DX003 (ip), vehicle: saline 100 % of control

O=C(COc1ccc(Cl)c(Cl)c1)Nc1ccc[n+](Cc2cccc([N+](=O)[O-])c2)c1
inactive: endpoint: mean survival time, dose: 100.0 mg/kg/injection, schedule: Q01DX001 (ip), vehicle: Klucel (hydroxypropylcellulose) (HPC) 95 % of control | endpoint: mean survival time, dose: 200.0 mg/kg/injection, schedule: Q01DX001 (ip), vehicle: Klucel (hydroxypropylcellulose) (HPC) 94 % of control | endpoint: mean survival time, dose: 400.0 mg/kg/injection, schedule: Q01DX001 (ip), vehicle: Klucel (hydroxypropylcellulose) (HPC) 94 % of control

CCCCc1c(N)nc(=S)[nH]c1C(=O)O
inactive: endpoint: mean survival time, dose: 75.0 mg/kg/injection, schedule: Q01DX009 (ip), vehicle: Klucel (hydroxypropylcellulose) (HPC) 98 % of control | endpoint: mean survival time, dose: 100.0 mg/kg/injection, schedule: Q04DX003 (ip), vehicle: Klucel (hydroxypropylcellulose) (HPC) 95 % of control | endpoint: mean survival time, dose: 150.0 mg/kg/injection, schedule: Q01DX009 (ip), vehicle: Klucel (hydroxypropylcellulose) (HPC) 106 % of control | endpoint: mean survival time, dose: 200.0 mg/kg/injection, schedule: Q04DX003 (ip), vehicle: Klucel (hydroxypropylcellulose) (HPC) 98 % of control and 91 % of control | endpoint: mean survival time, dose: 300.0 mg/kg/injection, schedule: Q01DX009 (ip), vehicle: Klucel (hydroxypropylcellulose) (HPC) 108 % of control | endpoint: mean survival time, dose: 400.0 mg/kg/injection, schedule: Q04DX003 (ip), vehicle: Klucel (hydroxypropylcellulose) (HPC) 96 % of control
